Measured values reported in ChEMBL document CHEMBL4190291, “Imidazo[1,2-a]pyrazine, Imidazo[1,5-a]quinoxaline and Pyrazolo[1,5-a]quinoxaline derivatives as IKK1 and IKK2 inhibitors” (2017).

How the values were obtained:
[1] = target: T1, Inhibitor of nuclear factor kappa-B kinase subunit beta (Homo sapiens) (UniProt O14920); assay: Inhibition of full length human GST-tagged IKK2 expressed in baculovirus expression system at 10 uM by Z'-LYTE assay
T1 sequence (whole entry): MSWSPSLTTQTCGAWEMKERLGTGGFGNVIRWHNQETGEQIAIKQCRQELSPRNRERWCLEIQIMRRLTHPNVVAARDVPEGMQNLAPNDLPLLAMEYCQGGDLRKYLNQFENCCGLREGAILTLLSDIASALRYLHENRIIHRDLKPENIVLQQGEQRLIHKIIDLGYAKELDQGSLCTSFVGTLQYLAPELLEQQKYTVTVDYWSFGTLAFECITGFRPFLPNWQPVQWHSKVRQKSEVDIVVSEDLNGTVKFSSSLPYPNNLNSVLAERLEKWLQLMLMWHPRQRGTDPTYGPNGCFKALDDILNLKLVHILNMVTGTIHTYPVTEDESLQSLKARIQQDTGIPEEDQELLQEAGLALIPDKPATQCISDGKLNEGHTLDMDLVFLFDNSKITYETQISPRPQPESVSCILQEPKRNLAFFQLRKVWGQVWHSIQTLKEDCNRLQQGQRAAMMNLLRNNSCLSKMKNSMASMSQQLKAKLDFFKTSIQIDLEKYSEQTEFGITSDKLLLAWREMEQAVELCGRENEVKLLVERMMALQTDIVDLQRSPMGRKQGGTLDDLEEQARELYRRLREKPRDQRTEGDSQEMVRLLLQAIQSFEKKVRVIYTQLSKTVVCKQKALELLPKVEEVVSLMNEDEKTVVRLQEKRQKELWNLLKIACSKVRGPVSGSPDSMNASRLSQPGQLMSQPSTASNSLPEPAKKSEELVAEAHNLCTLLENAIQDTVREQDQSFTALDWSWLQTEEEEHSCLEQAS

[2] = target: T2, Inhibitor of nuclear factor kappa-B kinase subunit alpha (Homo sapiens) (UniProt O15111); assay: Inhibition of full length human His-tagged IKK1 expressed in baculovirus expression system at 10 uM by Z'-LYTE assay
T2 sequence (whole entry): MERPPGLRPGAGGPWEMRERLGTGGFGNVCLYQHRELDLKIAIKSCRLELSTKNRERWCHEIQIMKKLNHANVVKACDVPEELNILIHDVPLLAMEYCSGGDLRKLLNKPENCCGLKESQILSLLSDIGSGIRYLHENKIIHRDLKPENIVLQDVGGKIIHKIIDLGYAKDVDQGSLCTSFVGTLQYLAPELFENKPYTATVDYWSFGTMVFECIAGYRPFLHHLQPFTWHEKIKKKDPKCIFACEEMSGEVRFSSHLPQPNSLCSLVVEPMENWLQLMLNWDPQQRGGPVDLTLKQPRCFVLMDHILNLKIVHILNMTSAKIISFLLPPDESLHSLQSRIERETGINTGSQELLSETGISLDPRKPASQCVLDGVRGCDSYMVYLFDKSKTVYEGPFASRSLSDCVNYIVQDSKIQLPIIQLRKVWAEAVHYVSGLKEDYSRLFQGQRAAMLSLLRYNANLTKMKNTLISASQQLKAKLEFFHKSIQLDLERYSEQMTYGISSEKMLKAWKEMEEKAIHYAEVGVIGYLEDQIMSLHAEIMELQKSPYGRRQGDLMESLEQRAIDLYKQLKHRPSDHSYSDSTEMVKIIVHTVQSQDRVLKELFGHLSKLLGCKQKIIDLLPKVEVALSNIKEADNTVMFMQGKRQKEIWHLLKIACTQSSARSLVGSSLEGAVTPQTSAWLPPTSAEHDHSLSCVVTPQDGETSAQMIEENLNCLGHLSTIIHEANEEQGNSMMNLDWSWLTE

[3] = test system: THP-1; assay: Anti-inflammatory activity in human THP1 cells assessed as inhibition of LPS/INFgamma-induced TNFalpha production at 10 uM relative to control; type: functional

inhibition [1] [%]	inhibition [2] [%]	Compound	inhibition at 10 µM [3] [%]
1	–	Cc1ccc2nc(N(C)C)c3ccnn3c2c1	–
4	-7	Cc1ccc2c(c1)nc(N(C)C)c1ccnn12	–
-3	-10	CNc1nc2ccc(C)cc2n2ncc(Br)c12	–
–	-1	CNc1nc2ccccc2n2c(Br)nc(Br)c12	–
16	0	CNc1nc2ccccc2n2c(Br)ncc12	–
4	-4	CNc1nc2cc(C)ccc2n2nccc12	–
18	5	CNc1nccn2c(-c3ccc(O)c(O)c3)cnc12	–
-1	-9	CNc1nccn2c(-c3ccc(OC)c(OC)c3)cnc12	–
-4	-1	CNc1nccn2c(C)cnc12	–
7	-6	CNc1nc2cc(C)ccc2n2ncc(Br)c12	–
-4	-2	COc1ccc(-c2cnc3c(N)nccn23)cc1OC	–
6	5	CNc1nccn2c(Br)cnc12	–
-8	20	Nc1nccn2c(-c3ccc(O)c(O)c3)cnc12	–
5	-3	CNc1nc2ccccc2n2c(C)cnc12	–
1	3	CNc1nc2ccccc2n2cncc12	–
10	-5	CNc1nc2ccccc2n2cnc(Br)c12	–
64	8	Cc1ccc2nc(NCCN)c3ncc(C)n3c2c1	–
1	0	CNc1nc2ccccc2n2ncc(Br)c12	–
-2	5	CNc1nc2ccccc2n2nccc12	–
–	–	CNc1nc2ccc(C)cc2n2c(Br)cnc12	40
19	-9	CNc1nc2ccc(C)cc2n2nccc12	–
–	–	CNc1nc2ccc(C)cc2n2c(C)cnc12	45
17	-10	CN(C)c1nc2ccccc2n2nccc12	–
10	7	Nc1nccn2c(Br)cnc12	–
